“Also recorded” adds a separate entry of the source.

In general, IC50 refers to the concentration that gives 50% inhibition.

The subject of data set [1] is SDH activity of F. graminearum mitochondrial SQR (complex II). The class given is biochemical, Fusarium graminearum. The following applies: absorbance 600 nm, 25 °C.
Data set [2] relates to SDH activity of P. indica mitochondrial SQR (complex II). Type of data set: biochemical, Piriformospora indica.
In a further data set the test system is SdhB. Type of data set: binding, Fusarium graminearum.
The next data set has as its system yeast strain Y2HGold. The experiment in a line: Bait toxicity test in yeast. The class given is cell-based, Saccharomyces cerevisiae. As to conditions: pGBKT7::Mtk vs pGBKT7 empty vector, growth on SDO/–Trp plates; data not shown.
Data set [3] deals with Fusarium graminearum. The following applies: read-out: IC50 against F. graminearum; cited from earlier work.
The test system of data set [4] is Fusarium graminearum. As to conditions: in vivo; cited from earlier work.
The test system of data set [5] is Blumeria graminis f. sp. hordei. The following applies: cited from earlier work. The text has this:
(§1) Insects are well protected against pathogens by an immunity-related arsenal of effector molecules including antimicrobial peptides (AMPs). Some AMPs are active against a broad spectrum of microbes, whereas the activity of others is restricted to certain types of bacteria or fungi. Insects produce a large number of antifungal peptides to protect them against fungal pathogens and parasites, and these peptides often interact with intracellular targets to inhibit key physiological processes such as DNA and protein synthesis, cell cycle progression and metabolic activity[1]–[3]. AMPs therefore offe ...

A further data set has as its system Piriformospora indica. As to conditions: cited from earlier work.
From the text: as §1

Data set [6] relates to β(1,3)-glucanosyltransferase Gel1. The following applies: cited from earlier work.

Consider “metchnikowin (HRHQGPIFDTRPSPFNPNQPRPGPIY; Metchnikowin synthetic; UniProt Q24395 27-52, looked up) [Mtk, 26-residue proline-rich linear antifungal peptide from Drosophila melanogaster; synthetic Mtk from Pepmic used in SDH assay]”, for which the “reduction in mitochondrial SDH activity, significance by concentration” value in [1] (Mtk 2, 1, 0.5, 0.25, 0.12 and 0.06 µM, all concentrations except the lowest, 30 min, vs control without Mtk, means of three independent experiments) was “All concentrations except the lowest caused significant reductions”. The “maximal inhibition of mitochondrial SDH activity” value in data set [1] (synthetic Mtk, tested at 0.06, 0.12, 0.25, 0.5, 1 and 2 µM, isolated mitochondria, DCIP colorimetric, kinetic 30 min, relative to control (0 µM peptide = 100%), mean of three independent experiments, in triplicate) was “up to 52%”. Further, the “reduction in mitochondrial SDH activity” value in data set [2] is “unaffected; also recorded: no reduction was observed; also recorded: did not inhibit”. Besides, in the data set with SdhB (Mtk constructs with YFPCempty or YFPNempty, cytoplasm and nucleus), the “YFP fluorescence of Mtk constructs without a fusion partner (auto-activation)” value is “produced YFP fluorescence in both the cytoplasm and nucleus”. Besides, the “YFP fluorescence on co-expression of Mtk and SdhB” value in the data set on SdhB (Nicotiana benthamiana leaves, 3 days after injection, Mtk and SdhB YFP fusions) is listed as “did not result in detectable YFP fluorescence”. In the data set on yeast strain Y2HGold, the “toxicity towards yeast cells” value was “not independently toxic”. Moreover, the IC50 in the data set with Fusarium graminearum [3] is 1 µM. In addition, the “antifungal activity when expressed in barley” value is “acts specifically against” in the data set on Fusarium graminearum [4], “acts specifically against” in data set [5] and “inactive” in the data set on Piriformospora indica. Also, in data set [6], the “interference with F. graminearum cell wall biosynthesis by targeting Gel1” value was “interferes with F. graminearum cell wall biosynthesis”.

The values above are taken from publication PMC5557811 (Scientific Reports, 2017).
